Laboratory results from ChEMBL document CHEMBL5729205, “Rho-associated protein kinase inhibitor, pharmaceutical composition comprising same, and preparation method and use thereof” (2022).

Target: Rho-associated protein kinase 2 (Homo sapiens, UniProt O75116)
Experiment: Biological Assay: The kinase IC50 was determined by a commercialized CISBIO kinase detection kit, HTRF KinEASE-STK S2 kit (62ST2PEC). ROCK2 (01-119) employed in the reaction was purchased from Carna Biosciences.Before the assay, the following working solutions as needed were formulated with corresponding reagents according to the instruction of the kinase detection kit: 1×kinase buffer, 5×STK-52 substrate working solution (1.5 μM) and 5×ATP working solution (1.5 μM), 5×ROCK2 kinase working solution, 4×Streptavidin-XL665 working solution, and 4×STK-Ab-Cryptate 2 detection solution. Then the assay was performed according to the following procedure.A solution of a compound at a concentration of 10000 nM was prepared with the 1×kinase buffer containing 2.5% DMSO. Gradient dilution of the solution of the compound was performed with the kinase buffer containing DMSO, so as to obtain solutions of a test compound at 9 different concentrations. In addition to wells of test compounds, a positive well (containing all the reagents except the compound) and a negative well (containing all the reagents except the test compound and kinase) were set. Except for the control wells (positive and negative wells), a solution of a test compound (4 μL) was added to each of the reaction wells, and a solution of 2.5% DMSO was added to the control wells. Then the substrate (2 μM, i.e., 2 μL. 5×STK-S2 substrate working solution) was added to each of the reaction wells. The 5×ROCK2 kinase working solution (2 μL, containing 1.4 ng ROCK2 kinase) was added to each of the reaction wells except for the negative well, the volume of which was made up with the 1×kinase buffer (2 μL). The 5×ATP working solution (2 μL) was added to each of the reaction wells, and the mixtures were incubated at room temperature for 2 hours. After the kinase reaction was complete, the 4×Streptavidin-XL665 working solution was added to each of the reaction wells, the solutions were mixed, followed by immediate addition of the 4×STK-Ab-Cryptate 2 detection solution (5 μL), and the mixtures were incubated at room temperature for 1 hour. The fluorescence signal was read on ENVISION (Perkinelmer) (excitation wavelength: 320 nm, and emission wavelength: 665 nm and 615 nm). The inhibitory rate in each well was calculated based on the fluorescence intensity value: ER (Emission Ratio)=(fluorescence intensity at 665 nm/fluorescence intensity at 615 nm); inhibitory rate=(ERpositive−ERtest compound)/(ERpositive−ERnegative)*100%. Curves were plotted and fitted to obtain the median inhibitory concentration (IC50) of each teat compound with the PRISM 5.0 software.

Chain of Rho-associated protein kinase 2 (O75116 whole entry): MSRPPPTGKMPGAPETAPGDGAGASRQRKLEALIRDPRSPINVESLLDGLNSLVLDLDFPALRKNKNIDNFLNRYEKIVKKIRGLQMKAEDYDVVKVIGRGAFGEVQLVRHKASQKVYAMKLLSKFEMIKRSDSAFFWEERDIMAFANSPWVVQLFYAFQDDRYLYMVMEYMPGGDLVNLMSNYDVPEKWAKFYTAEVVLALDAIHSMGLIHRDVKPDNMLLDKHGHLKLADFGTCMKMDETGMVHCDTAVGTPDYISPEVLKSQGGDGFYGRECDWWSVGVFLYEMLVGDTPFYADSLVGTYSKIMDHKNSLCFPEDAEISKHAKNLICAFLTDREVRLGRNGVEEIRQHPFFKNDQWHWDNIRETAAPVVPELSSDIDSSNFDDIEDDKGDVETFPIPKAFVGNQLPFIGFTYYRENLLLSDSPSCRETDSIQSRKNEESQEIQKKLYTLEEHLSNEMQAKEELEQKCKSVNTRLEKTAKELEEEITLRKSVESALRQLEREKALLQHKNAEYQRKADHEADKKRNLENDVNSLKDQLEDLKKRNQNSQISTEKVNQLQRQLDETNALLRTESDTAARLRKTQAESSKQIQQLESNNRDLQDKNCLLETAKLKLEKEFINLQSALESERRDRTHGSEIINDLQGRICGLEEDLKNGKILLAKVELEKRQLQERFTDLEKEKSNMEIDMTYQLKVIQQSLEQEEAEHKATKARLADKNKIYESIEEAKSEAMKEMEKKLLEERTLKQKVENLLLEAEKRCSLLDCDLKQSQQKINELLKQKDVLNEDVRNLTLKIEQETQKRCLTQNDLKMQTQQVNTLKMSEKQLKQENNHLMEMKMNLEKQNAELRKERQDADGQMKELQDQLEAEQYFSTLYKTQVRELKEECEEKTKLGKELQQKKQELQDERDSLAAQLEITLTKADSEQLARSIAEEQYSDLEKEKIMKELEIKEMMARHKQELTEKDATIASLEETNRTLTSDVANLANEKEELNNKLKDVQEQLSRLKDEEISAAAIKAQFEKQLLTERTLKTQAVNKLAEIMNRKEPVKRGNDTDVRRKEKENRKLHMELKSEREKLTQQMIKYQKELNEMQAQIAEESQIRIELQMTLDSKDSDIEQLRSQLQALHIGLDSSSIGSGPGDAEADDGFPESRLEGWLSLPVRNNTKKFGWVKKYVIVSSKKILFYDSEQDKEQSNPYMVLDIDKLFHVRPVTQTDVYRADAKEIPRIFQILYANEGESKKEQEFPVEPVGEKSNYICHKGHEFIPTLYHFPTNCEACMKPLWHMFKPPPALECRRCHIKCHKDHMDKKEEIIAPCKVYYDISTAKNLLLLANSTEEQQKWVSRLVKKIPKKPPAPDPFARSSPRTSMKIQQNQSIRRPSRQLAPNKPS

| IC50 | Structure (SMILES) |
| --- | --- |
| 322 nM | C#CC1CN(C(=O)c2cc3ccc(-c4nccc(Nc5ccc(-c6cn[nH]c6)cc5)n4)cc3n2C)C1 |
| 350 nM | CC(C)NC(=O)c1cc2ccc(-c3nc(Cc4ccccc4)cc(Nc4ccc5[nH]ncc5c4)n3)cc2[nH]1 |
| 27 nM | COCn1c(C(=O)N2CC(F)(F)C2)cc2ccc(-c3nc4c(c(Nc5ccc(-c6cn[nH]c6)cc5)n3)CNC4)cc21 |
| 114 nM | O=C(Oc1ccccc1)N1Cc2ccc(-c3nccc(Nc4ccc(-c5cn[nH]c5)cc4)n3)cc2C1 |
| 412 nM | O=C(c1cc2ccc(-c3nccc(Nc4ccc5[nH]ncc5c4)n3)cc2[nH]1)N1CC2CNCC2C1 (centres undefined) |
| 39 nM | O=C(C1CC(F)(F)C1)N1Cc2ccc(-c3cncc(Nc4ccc(-c5cn[nH]c5)cc4)n3)cc2C1 |
| 34 nM | Cn1c(C(=O)N2CC(F)(F)C2)cc2ccc(-c3nccc(Nc4ccc(-c5cn[nH]c5)cc4O)n3)cc21 |
| 80 nM | Cn1c(C(=O)N2CC(F)(F)C2)cc2ccc(-c3nc(Nc4ccc(-c5cn[nH]c5)cc4)c4occc4n3)cc21 |
| 331 nM | CC1(C(=O)N2CCc3ccc(-c4ncc(F)c(Nc5ccc(-c6cn[nH]c6)cc5)n4)cc3C2)CC(F)(F)C1 |
| 214 nM | O=C(N1CCc2ccc(-c3nccc(Nc4ccc(-c5cn[nH]c5)cc4)n3)cc2C1)N1CC(F)(F)C1 |
| 240 nM | N=C(N)N1CCC2(CC1)CCN(C(=O)c1cc3ccc(-c4nccc(Nc5ccc6[nH]ncc6c5)n4)cc3[nH]1)CC2 |
| 76 nM | Cn1ccc2nc(-c3ccc4cc(C(=O)N5CC(F)(F)C5)n(C)c4c3)nc(Nc3ccc(-c4cn[nH]c4)cc3)c21 |
| 39 nM | Cn1c(C(=O)N2CC(F)(F)C2)cc2ccc(-c3nccc(Nc4ccc(-c5cn[nH]c5)cn4)n3)cc21 |
| 19 nM | O=C(OC1CC(F)(F)C1)N1Cc2ccc(-c3nccc(Nc4ccc5[nH]ncc5c4)n3)cc2C1 |
| 14 nM | CN1Cc2nc(-c3ccc4cc(C(=O)N5CC(F)(F)C5)n(C)c4c3)nc(Nc3ccc(-c4cn[nH]c4)cc3)c2C1 |
| 40 nM | CN1Cc2nc(-c3ccc4c(c3)CN(C(=O)C3CC(F)(F)C3)C4)nc(Nc3ccc(-c4cn[nH]c4)cc3)c2C1 |
| 129 nM | O=C(C1CC(F)(F)C1)N1Cc2ccc(-c3nc(Nc4ccc5[nH]ncc5c4)c4sccc4n3)cc2C1 |
| 19 nM | Cc1cnc(-c2ccc3cc(C(=O)N4CC(F)(F)C4)n(C)c3c2)nc1Nc1ccc(-c2cn[nH]c2)cc1 |
| 93 nM | Cc1[nH]ncc1-c1ccc(Nc2nc(-c3ccc4c(c3)CN(C(=O)C3CC(F)(F)C3)C4)ncc2F)cc1 |
| 27 nM | Cn1c(C(=O)N2CC(F)(F)C2)cc2ccc(-c3nccc(Nc4ccc(-c5cn[nH]c5)nc4)n3)cc21 |
| 355 nM | COCCn1c(C(=O)N2CC(F)(F)C2)cc2ccc(-c3nccc(Nc4ccc(-c5cn[nH]c5)cc4)n3)cc21 |
| 159 nM | O=C(c1cc2ccc(-c3nccc(Nc4ccc(-c5cn[nH]c5)cc4)n3)cc2n1CC(F)F)N1CC(F)(F)C1 |

| IC50 | Structure (SMILES) |
| --- | --- |
| 130 nM | O=C(C1CC(F)(F)C1)N1CCc2cc(-c3nccc(Nc4ccc(-c5cn[nH]c5)cc4)n3)ccc2C1 |
| 214 nM | O=C(C1CC(F)(F)C1)N1CCc2ccc(-c3nccc(Nc4ccc(-c5cn[nH]c5)cc4)n3)cc2C1 |
| 18 nM | O=C(C1CC(F)(F)C1)N1Cc2ccc(-c3nc(Nc4ccc(-c5cn[nH]c5)cc4)c4occc4n3)cc2C1 |
| 69 nM | O=C(OC1CC(F)(F)C1)N1Cc2ccc(-c3ncc(F)c(Nc4ccc(-c5cn[nH]c5)cc4)n3)cc2C1 |
| 477 nM | O=C(C1CCC(F)(F)CC1)N1CCc2ccc(-c3ncc(F)c(Nc4ccc(-c5cn[nH]c5)cc4)n3)cc2C1 |
| 255 nM | COCn1c(C(=O)N2CC(F)(F)C2)cc2ccc(-c3ncc(F)c(Nc4ccc(-c5cn[nH]c5)cc4)n3)cc21 |
| 240 nM | O=C(c1cc2ccc(-c3nccc(Nc4ccc(-c5cn[nH]c5)cc4)n3)cc2[nH]1)N1CCCC1 |
| 22 nM | CC1(C(=O)N2Cc3ccc(-c4nccc(Nc5ccc(-c6cn[nH]c6)cc5)n4)cc3C2)CC(F)(F)C1 |
| 23 nM | COc1cnc(-c2ccc3cc(C(=O)N4CC(F)(F)C4)[nH]c3c2)nc1Nc1ccc(-c2cn[nH]c2)cc1 |
| 118 nM | CCn1c(C(=O)N2CC(F)(F)C2)cc2ccc(-c3nccc(Nc4ccc(-c5cn[nH]c5)cc4)n3)cc21 |
| 10 nM | O=C(C1CC(F)(F)C1)N1Cc2ccc(-c3nc4c(c(Nc5ccc(-c6cn[nH]c6)cc5)n3)CNC4)cc2C1 |
| 4 nM | Cn1c(C(=O)N2CC(F)(F)C2)cc2ccc(-c3nc4c(c(Nc5ccc(-c6cn[nH]c6)cc5)n3)CNC4)cc21 |
| 14 nM | O=C(NC1CCN(c2ccncc2Cl)CC1)c1cc2ccc(-c3nccc(Nc4ccc5[nH]ncc5c4)n3)cc2[nH]1 |
| 10 nM | Cn1c(C(=O)N2CC(F)(F)C2)cc2ccc(-c3nc4c(c(Nc5ccc(-c6cn[nH]c6)cc5)n3)COC4)cc21 |
| 313 nM | O=C(c1ccncc1)N1Cc2ccc(-c3nccc(Nc4ccc(-c5cn[nH]c5)cc4)n3)cc2C1 |
| 21 nM | COc1cc(-c2cn[nH]c2)ccc1Nc1ccnc(-c2ccc3c(c2)CN(C(=O)C2CC(F)(F)C2)C3)n1 |
| 90 nM | C[C@@H](NC(=O)c1cc2ccc(-c3nccc(Nc4ccc5[nH]ncc5c4)n3)cc2[nH]1)c1ccc(C(F)(F)F)nc1 |
| 162 nM | O=C(C1CCOCC1)N1Cc2ccc(-c3ncc(F)c(Nc4ccc(-c5cn[nH]c5)cc4)n3)cc2C1 |
| 427 nM | COCn1c(C(=O)N2CC(F)(F)C2)cc2ccc(-c3ncnc(Nc4ccc(-c5cn[nH]c5)cc4)n3)cc21 |
| 393 nM | O=C(c1cccnc1)N1Cc2ccc(-c3nccc(Nc4ccc(-c5cn[nH]c5)cc4)n3)cc2C1 |
| 29 nM | O=C(C1CC(F)(F)C1)N1Cc2ccc(-c3nc(Nc4ccc(-c5cn[nH]c5)cc4)c4[nH]ccc4n3)cc2C1 |
| 60 nM | O=C(C1CC(F)(F)C1)N1Cc2ccc(-c3nc(Nc4ccc(-c5cn[nH]c5)cc4)c4sccc4n3)cc2C1 |
